Measured values published in the METLIN SMRT retention time set (Domingo-Almenara et al. 2019).

Assay: gradient 5% acetonitrile 3 min, to 50% in 2 min, to 85% in 15 min, held 3 min, 100 µL/min
Conditions: column: Zorbax Extend-C18 2.1 x 50 mm; eluents: water / acetonitrile, 0.1% formic acid
Summary of the method: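 Over 3 months, pure standards in mixtures of ~100 molecules were run by HPLC coupled to a quadrupole time-of-flight mass spectrometer in positive and negative ionization mode. The column was a Zorbax Extend-C18 (2.1 × 50 mm, 1.8 μm) at 100 μL/min, eluted with water and acetonitrile each holding 0.1% formic acid, with 40 μL dead and 900 μL dwell volumes. Retention time was determined from adduct peaks chosen by software and checked manually.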

Row | SMILES | RP-LC retention time [s]
1 | CCN1CCN(CC(=O)NCc2ccccc2)C(=O)C1=O | 570
2 | COc1ccc(C(CC(=O)N2CCCCC2)N2Cc3ccccc3C2=O)cc1OC (stereo not drawn) | 771
3 | N#CCSc1nnc2ccc3ccccc3n12 | 639
4 | CCN(C(=O)C1CCCN(c2ncnc3c2nc2n3CCCCC2)C1)c1cc(C)ccc1C (stereo not drawn) | 905
5 | CCN1C(=O)COc2ccc(-c3noc(-c4ccc(Cl)cc4)n3)cc21 | 1220
6 | Cc1ccc(C(=O)NCc2ccc3c(c2)ncn3C(C)C)s1 | 614
7 | COc1ccc(Cc2nc3nccc(-c4ccccn4)n3n2)cc1 | 768
8 | COc1ccc(CNC(=O)C2CCCN(c3nnc4ccc(Cl)cn34)C2)cc1OC (stereo not drawn) | 685
9 | Cc1ccc(CNC(=O)CCNc2c(-c3ccc(F)cc3)nc3cnccn23)o1 | 694
10 | CC(=O)Nc1nsc(N2CCC(C(=O)N3CCN(c4ccccc4)CC3)CC2)n1 | 659
11 | Cn1c(CNC(=O)C2CCC2)nc2c1CN(C(=O)Cc1ccc(Cl)cc1)CC2 | 623
12 | CCc1sc(NC(=O)CCc2ccccc2)nc1-c1ccccc1 | 1150
13 | O=C(NC1CCCC1)N1CC(Oc2ccccc2-c2nc(-c3ccccc3)no2)C1 | 1010
14 | COCCN(CCOC)c1nc(S(=O)(=O)c2ccc(C)cc2)c(Cl)s1 | 939
15 | Cc1nc2cc(-c3noc(Cc4cccc(Cl)c4)n3)ccc2o1 | 1070
16 | Cc1cc(=O)n(CC(=O)Nc2ccc(Cl)cc2)c(N2CCCCC2)n1 | 708
17 | CC(C)CNC(=O)CCc1nc2ccccc2n(CC(=O)NCCc2ccc(Cl)cc2)c1=O | 855
18 | Cc1cccc(NC(=O)C2CCN(S(=O)(=O)c3cc(C(=O)N(C)C)cs3)CC2)c1C | 790
19 | CCN1CCCC1CNC(=O)c1nnc(Cc2cc(OC)c(OC)c(OC)c2)o1 (stereo not drawn) | 586
20 | COC(=O)Cn1c(=O)oc2cc(S(=O)(=O)N3CCN(c4ccccn4)CC3)ccc21 | 624
21 | O=C(Cn1nc2n(c1=O)CCCC2)NCCc1ccc(Cl)cc1 | 678
22 | CSc1nnc(-c2nn(C)c3c2CN(C(=O)c2cccc(Cl)c2)CC3)n1C | 737

Row | SMILES | RP-LC retention time [s]
23 | CCC(=O)n1nc(C)c(S(=O)(=O)N2CCOCC2)c1C | 848
24 | COCCCN(CC(=O)N1CCc2sccc2C1COc1ccc(Cl)cc1)C(=O)NC(C)C (stereo not drawn) | 996
25 | CNC(=O)C1CN(C(=O)Nc2ccccc2C(F)(F)F)CC12CCCC2 (stereo not drawn) | 734
26 | CCc1nc(-c2csc(S(=O)(=O)N3CCCC(C(=O)Nc4ccc(C)cc4Cl)C3)c2)no1 (stereo not drawn) | 1100
27 | C[C@H]1CN(C(=O)Nc2ccc(F)cc2F)C[C@@H]1c1nc(-c2cccnc2)no1 | 770
28 | Cc1nnc2n1CCC(NC(=O)c1cscn1)CC2 (stereo not drawn) | 542
29 | CCc1nc(-c2csc(S(=O)(=O)N3CCC(C(=O)NC4CCCC4)CC3)c2)no1 | 880
30 | CC1=C(CO)C(=O)O[C@@H]([C@@H](C)[C@H]2CCC3[C@@H]4C[C@H]5O[C@]56[C@@H](O)C=CC(=O)[C@]6(C)C4CC[C@@]32C)C1 (stereo partly drawn) | 759
31 | CN(C)c1cccc(-c2nc(-c3ccc(S(=O)(=O)N4CCCC4)cc3)no2)c1 | 1250
32 | CC(C)(C)NC(=O)c1ccc2c(c1)CCCN2S(C)(=O)=O | 746
33 | CCN1CCCn2cc(S(=O)(=O)N3CCN(c4ccc(Cl)cc4)CC3)cc2C1=O | 894
34 | Cc1cccc(-c2noc(CN3C(=O)COc4ccccc43)n2)c1 | 1030
35 | O=C(C1CC(=O)N(c2n[nH]c3cccc(F)c23)C1)N1CCC(Cc2ccccc2)CC1 (stereo not drawn) | 882
36 | COc1cc(Cl)ccc1C(=O)N1CCCN(C2CCN(CC3CC3)C2=O)CC1 (stereo not drawn) | 574
37 | COC(=O)Nc1ccc(S(=O)(=O)N2CCCC(C(F)(F)F)C2)cc1 (stereo not drawn) | 837
38 | O=C(NCc1ccncc1)C1=C2CCCN2c2ccc(F)cc2S1(=O)=O | 583
39 | Cc1ccccc1-c1nc2cnccn2c1NCCC(=O)NCc1ccc(F)c(Cl)c1 | 714
40 | CCOC(=O)c1[nH]c(C)c(CCC(=O)N2CCC(C(=O)NCc3ccccc3OC)CC2)c1C | 800
41 | O=C1C(=O)N(Cc2ccc(C(=O)N3CCCCC3)cc2)CCN1Cc1ccc(F)cc1 | 735
42 | Cc1ccc(S(=O)(=O)N2C(=O)CCC2C(=O)NC2CCCCC2)cc1C (stereo not drawn) | 916
43 | CCC(C)NC(=O)CCc1c(-c2ccc(Br)cc2)nc2ccccn12 (stereo not drawn) | 657
44 | O=C(c1cccc(Cn2cncn2)c1)N1CCC2(CC1)OCCO2 | 607

Row | SMILES | RP-LC retention time [s]
45 | Fc1ccc(Cc2nc(-c3ccnc(N4CCCC4)c3)no2)cc1 | 708
46 | Cc1ccc2nc(CN3CCN(C(=O)Nc4ccc(F)cc4F)CC3)oc2c1 | 706
47 | Cc1ccc(-n2cccc2CC(=O)NCc2ccc(N3CCOCC3)cc2)cc1 | 877
48 | CC1CCN(c2nn(CC(=O)Nc3ccc4c(c3)CCC4)c(=O)c3ccccc23)CC1 | 1250
49 | CO[C@H]1C(=O)N(C(C)C)[C@H]1C1CCN(S(=O)(=O)Cc2ccccc2F)CC1 | 831
50 | Cc1cccc(NC(=O)CN2C(=O)CC(C)S(=O)(=O)c3ccccc32)c1C (stereo not drawn) | 789
51 | CCN1CCCn2nc(C3CCN(C(=O)c4cccnc4SC)CC3)cc2C1=O | 649
52 | Cc1cccc(NC(=O)C2CCN(S(=O)(=O)c3ccc4c(c3)sc(=O)n4C(C)C)CC2)c1 | 1010
53 | COC(=O)C1=C(C)NC(C)=C(C(=O)OC2CCCN(Cc3ccccc3)C2)C1c1cccc([N+](=O)[O-])c1 (stereo not drawn) | 844
54 | C[C@@H]1C(=O)O[C@H]2[C@H](O)[C@@]34C5C[C@@H](C(C)(C)C)[C@]36[C@H](OC(=O)[C@@H]6O)OC4(C(=O)O5)[C@@]12O (stereo partly drawn) | 802
55 | O=C(c1cn2cc(Cl)ccc2n1)N1CCN(c2ccccc2Cl)CC1 | 946
56 | CCn1cc(CCNS(=O)(=O)CC)c2cccnc21 | 630
57 | CCNC(=O)c1[nH]c2ccc(C)cc2c1N1CCCC1=O | 690
58 | O=C(Cc1ccc(F)cc1)Nc1ccc(-c2ccc3nncn3n2)cc1 | 676
59 | Cn1nccc1C(=O)N1CCN(c2cc(=O)n(C)c(=O)n2C)CC1 | 587
60 | Cc1[nH]c(C(=O)NC2CCCCC2)c(C)c1S(=O)(=O)N1CCCC1 | 843
61 | CN1C(=C=Cc2cc(I)c(O)c(I)c2)C(C)(C)c2ccccc21 | 890
62 | CSc1ccc(-c2nc3ccc(Cl)cn3c2Nc2ccc(C)cc2)cc1 | 954
63 | COc1cccc(-n2cc(C(=O)O)nn2)c1 | 682
64 | CCOc1nccnc1N1CCC(N(C)C(=O)Cc2cccnc2)C1 (stereo not drawn) | 630
65 | CN1C(=O)c2cc(C(=O)NCCC3=CCCCC3)nn2CC1(C)C(=O)NCc1ccc(F)cc1 (stereo not drawn) | 811
66 | CCSc1nc(NC(C)C)c2cnn(CCNC(=O)Cc3c(C)noc3C)c2n1 | 716

Row | SMILES | RP-LC retention time [s]
67 | COCCc1nnc(NC(=O)C2c3ccccc3Oc3ccccc32)o1 | 718
68 | COC(=O)C1=CN(CC(=O)NCc2ccc(Cl)cc2)S(=O)(=O)N=C1C | 850
69 | Cc1ccc(N2CCN(C(=O)c3ccc(CN4CCN(C(C)C)C(=O)C4=O)cc3)CC2)cc1 | 728
70 | O=c1c(NCCN2CCCC2)nc2ccncc2n1Cc1ccccc1 | 876
71 | CN(C)S(=O)(=O)c1ccc(C(=O)Nc2cccc([N+](=O)[O-])c2)cc1 | 858
72 | COCCCNC(=O)N1CCCN(C2=NS(=O)(=O)C(c3ccc(C)c(C)c3)=C2C)CC1 | 739
73 | CC1(C(=O)NCc2ccccc2)CCCN(S(=O)(=O)c2ccccc2Cl)C1 (stereo not drawn) | 946
74 | CCS(=O)(=O)Nc1ccc2nc(N3CCN(c4cccc(C)c4C)CC3)cc(C(=O)O)c2c1 | 743
75 | CNc1ccc2oc(C[C@H]3O[C@@]4(CC[C@H]3C)O[C@H]([C@H](C)C(=O)c3ccc[nH]3)[C@H](C)C[C@H]4C)nc2c1C(=O)O | 1030
76 | CCOc1cccc(CNC(=O)c2c(C)sc3ccn(CC)c(=O)c23)c1 | 856
77 | O=C(Nc1ccccc1)C1CCN(S(=O)(=O)c2cc(-c3noc(C4CC4)n3)cs2)CC1 | 1020
78 | Cc1ccc(C2Cn3cnc(C(=O)N4CCC(C(=O)NC5CCCCC5)CC4)c3CO2)cc1 (stereo not drawn) | 794
79 | O=C(O)CNC(=O)C1CCCN(S(=O)(=O)c2ccc(F)cc2)C1 (stereo not drawn) | 634
80 | CCc1ccc(NS(=O)(=O)c2cc3n(c2)CCCN(CC)C3=O)cc1 | 801
81 | Cc1cc(NS(=O)(=O)c2cc(-c3[nH]ncc3C(=O)N(C)C)oc2C)ccc1F | 699
82 | Cc1oc(-c2[nH]ncc2C(=O)N2CCCC2)cc1S(=O)(=O)Nc1cccc(F)c1 | 704
83 | Fc1ccccc1-c1noc(NCC2CCCO2)n1 (stereo not drawn) | 748
84 | CCCCN(C)c1nc(-c2ccc(Cl)cc2Cl)nc2ccccc12 | 893
85 | O=C1CCCCC(CNC(=O)C2(c3ccccc3)CC2)N1 (stereo not drawn) | 697
86 | CCCn1cnc2cc(-c3noc(CNC(=O)Cc4ccccc4)n3)ccc21 | 659
87 | CCn1c(=O)n(CC(=O)NC(C)C)c(=O)c2cnc(-c3ccccc3)nc21 | 863
88 | Cc1cccc(OCC(=O)Nc2c(C(=O)N3CCN(c4ccccn4)CC3)oc3ccccc23)c1 | 800
